# Source: US20240024273A1, “TOPICAL ADMINISTRATION OF 2-(DIETHYLAMINO)ETHYL 2-(4-ISOBUTYLPHENYL)PROPRIONATE FOR TREATMENT OF DISEASES” (TECHFIELDS PHARMA CO., LTD., priority 2020, published 2024)
# Assays:
# [1] = test system: Adjuvant-induced arthritis; experiment: Adjuvant-induced arthritis; assay type: in vivo, Lewis rats; conditions: 10, 30 and 90 mg/kg daily, topical
# [2] = Acute maximum tolerated dose study, dermal; design: species or system Beagle dogs; conditions: beagle, dog, in vivo, topical or ocular; dermal application
# [3] = test system: Mild to Moderate Osteoarthritis of the Knee; experiment: Phase 2 study: subject's and physician's global assessment of response to therapy; assay type: in vivo, human
# Text: 3.9.3. Exploratory Efficacy Endpoints: • 1. Subject's global assessment of disease status of the target knee at 2, 4, 8, and 12 weeks of treatment; • 2. Investigator's global assessment of disease status of the target knee at 2, 4, 8, and 12 weeks of treatment; • 3. Subject's global assessment of response to therapy of the target knee at 2, 4, 8, and 12 weeks of treatment; • 4. Investigator's global assessment of response to therapy of the target knee at 2, 4, 8, and 12 weeks of treatment; • 5. Change from Baseline over time in VAS pain scores for the target knee from Daily Diary data; • 6. Amount of rescue medication (acetaminophen) consumed per day for target knee pain.
# Data for the exploratory efficacy endpoints will be summarized using descriptive statistics.
compound,measurement,setting,value
CCN(CC)CCOC(=O)C(C)c1ccc(CC(C)C)cc1 (centres unmarked) [2-(diethylamino)ethyl 2-(4-isobutylphenyl)propionate],arthritis,[1],significantly inhibited arthritis.
same,MTD,[2],≥ 50 mg/kg
same,Physician's global assessment of response to therapy: Excellent,[3]; 8.75 mg/knee (BID),11.1%
same,Physician's global assessment of response to therapy: fair,[3]; 8.75 mg/knee (BID),36.5%
same,Physician's global assessment of response to therapy: good,[3]; 8.75 mg/knee (BID),38.1%
same,Physician's global assessment of response to therapy: none,[3]; 8.75 mg/knee (BID),7.9%
same,Physician's global assessment of response to therapy: poor,[3]; 8.75 mg/knee (BID),6.3%
same,Physician's global assessment of response to therapy: total percentage of excellent and good,[3]; 8.75 mg/knee (BID),49.2%
same,Subject's global assessment of response to therapy: Excellent,[3]; 8.75 mg/knee (BID),7.8%
same,Subject's global assessment of response to therapy: fair,[3]; 8.75 mg/knee (BID),29.7%
same,Subject's global assessment of response to therapy: good,[3]; 8.75 mg/knee (BID),43.8%
same,Subject's global assessment of response to therapy: none,[3]; 8.75 mg/knee (BID),9.4%
same,Subject's global assessment of response to therapy: poor,[3]; 8.75 mg/knee (BID),9.4%
same,Subject's global assessment of response to therapy: total percentage of excellent and good,[3]; 8.75 mg/knee (BID),51.6%
same,Physician's global assessment of response to therapy: Excellent,[3]; 17.5 mg/knee (BID),23.2%
same,Physician's global assessment of response to therapy: fair,[3]; 17.5 mg/knee (BID),18.8%
same,Physician's global assessment of response to therapy: good,[3]; 17.5 mg/knee (BID),43.5%
same,Physician's global assessment of response to therapy: none,[3]; 17.5 mg/knee (BID),5.8%
same,Physician's global assessment of response to therapy: poor,[3]; 17.5 mg/knee (BID),8.7%
same,Physician's global assessment of response to therapy: total percentage of excellent and good,[3]; 17.5 mg/knee (BID),66.7%
same,Subject's global assessment of response to therapy: Excellent,[3]; 17.5 mg/knee (BID),20.3%
same,Subject's global assessment of response to therapy: fair,[3]; 17.5 mg/knee (BID),17.2%
same,Subject's global assessment of response to therapy: good,[3]; 17.5 mg/knee (BID),50.0%
same,Subject's global assessment of response to therapy: none,[3]; 17.5 mg/knee (BID),7.8%
same,Subject's global assessment of response to therapy: poor,[3]; 17.5 mg/knee (BID),4.7%
same,Subject's global assessment of response to therapy: total percentage of excellent and good,[3]; 17.5 mg/knee (BID),70.3%
same,Physician's global assessment of response to therapy: Excellent,[3]; 35 mg/knee (BID),18.8%
same,Physician's global assessment of response to therapy: fair,[3]; 35 mg/knee (BID),17.2%
same,Physician's global assessment of response to therapy: good,[3]; 35 mg/knee (BID),42.2%
same,Physician's global assessment of response to therapy: none,[3]; 35 mg/knee (BID),7.8%
same,Physician's global assessment of response to therapy: poor,[3]; 35 mg/knee (BID),14.1%
same,Physician's global assessment of response to therapy: total percentage of excellent and good,[3]; 35 mg/knee (BID),60.9%
same,Subject's global assessment of response to therapy: Excellent,[3]; 35 mg/knee (BID),18.0%
same,Subject's global assessment of response to therapy: fair,[3]; 35 mg/knee (BID),18.3%
same,Subject's global assessment of response to therapy: good,[3]; 35 mg/knee (BID),49.2%
same,Subject's global assessment of response to therapy: none,[3]; 35 mg/knee (BID),9.8%
same,Subject's global assessment of response to therapy: poor,[3]; 35 mg/knee (BID),4.9%
same,Subject's global assessment of response to therapy: total percentage of excellent and good,[3]; 35 mg/knee (BID),67.2%
